{
  "source": "patent EP0009776A1",
  "about": "“N-monohydroxypropylamides, N-dihydroxypropylamides and their acetonoides of all-E and 13-Z retinoic acid, process for their preparation and pharmaceutical compositions containing them” (BASF Aktiengesellschaft, priority 1978, dated 1980)",
  "tested_on": "Hamster-Tracheen-Gewebe",
  "test": "Reversal of keratinization induced by vitamin A deficiency in hamster tracheal tissue (method of Clamon et al. / Sporn et al.)",
  "format": "cell-based",
  "conditions": "in 10^-8 molarer Lösung",
  "from_the_text": "Die erfindungsgemäßen Verbindungen sind in ihrer biologischen Aktivität den bekannten Retinsäureamiden der DE-OS 21 02 586 in etwa vergleichbar. Beispielsweise hebsowohl Retinsäure-N-(ß-hydroxy)-ethylamid als auch die erfindungsgemäßen Retinoide die durch Vitamin A-Hypovitamines induzierte Keratinisierung von Hamster-Tracheen-Gewebe noch in 10^-8 molarer Lösung vollständig auf. Die Methodik hierzu kann G.H. CLAMON et al Nature 250, 64 - 66 (1974) oder M.B. SPORN et al Nature 253, 47 - 50 (1975) entnommen werden. Die Keratinisierung wird als praekanzerotischer Prozes angesehen.",
  "data": [
    {"smiles": "CC1=C(/C=C/C(C)=C/C=C/C(C)=C/C(=O)NCCO)C(C)(C)CCC1", "note": "[Retinsäure-N-(ß-hydroxy)-ethylamid]", "values": [
      {"measurement": "Aufhebung der durch Vitamin A-Hypovitamines induzierten Keratinisierung von Hamster-Tracheen-Gewebe", "value": "vollständig"}
    ]}
  ]
}
